A short description of this data set: wn = mass fraction of the nth substance listed. Conditions: 313.15 K, 100 kPa, Liquid, Pycnometric method.

± gives the expanded uncertainty stated by the source.

Broadly, the mass density is the mass of a sample divided by its volume.

With `O=S(=O)([O-])O.[K+]` [hydrogen potassium sulfate] + O, for the setting “w1 = 0.4722”, the mass density was found to be 1391 ± 4 kg/m3. For `O=S(=O)([O-])O.[K+]` [hydrogen potassium sulfate] + O=S(=O)(O)O, the mass density (w2 = 0.6151) came out at 1832 ± 6 kg/m3.

Values taken from the NIST ThermoML archive (doi:10.1021/acs.jced.5b00594).
